From patent US8410309B2, “Phenoxy carboxylic acid compounds and compositions for delivering active agents” (Emisphere Technologies, Inc., priority 1999, dated 2013)
“And” between values parts separate entries of the source, which are not always exact repeats. Identical values can stand only once.

Assays:
[1] = Salmon calcitonin (sCT) oral delivery, serum sCT by EIA; conditions: rats, delivery agent compound dose 150 mg/kg, sCT dose 30 μg/kg, dose volume 1 (ml)
Method: Oral dosing (PO) compositions of a delivery agent compound and salmon calcitonin (sCT) in deionized water were prepared as described in Table 2 below. […] Either the sodium salt of the compound was used or the free acid was converted to the sodium salt by stirring the resultant solution and adding one equivalent of sodium hydroxide (1.0 N) and diluting with water. The solution was vortexed, then heated (about 37° C.) and sonicated. The pH was adjusted to about 7 (about 6.5 to 8.5) with NaOH or HCl. 90 μg sCT from a sCT stock solution (2 mg/ml made by adding 10001 pH 4 phosphate buffer to sCT and allowing it to go into solution by sitting for about 10-20 minutes and periodically gently inverting) was added to the solution.
The typical dosing and sampling protocols were as follows. Male Sprague-Dawley rats weighing between 200-250 g were fasted for 24 hours and administered ketamine (44 mg/kg) and chlorpromazine (1.5 mg/kg) 15 minutes prior to dosing and again as needed to maintain anesthesia. A dosing group of five animals was administered one of the dosing solutions. For oral dosing, an 11 cm Rusch 8 French catheter was adapted to a 1 ml syringe with a pipette tip. The syringe was filled with dosing solution by drawing the solution through the catheter, which was then wiped dry. The catheter was placed down the esophagus leaving 1 cm of tubing past the incisors. Solution was administered by pressing the syringe plunger.
Blood samples were collected serially from the tail artery, typically at time=0, 10, 20, 30, 60 and 90 minutes. […] Numbers were adjusted according to baseline values obtained at time=0. The results from the animals in each dosing group were averaged for each time point.

[2] = Heparin oral/intracolonic delivery, clotting time by activated partial thromboplastin time (APTT); format: in vivo, Sprague-Dawley rats; conditions: rats, baseline about 20 seconds
Method: Oral gavage (PO) and/or intracolonic (IC) dosing solutions containing a delivery agent compound and heparin sodium USP were prepared in 25% aqueous propylene glycol. […] This dry mixture was dissolved in 25% v/v aqueous propylene glycol, vortexed, and placed in a sonicator (about 37° C.). The pH was adjusted to about 7 (6.5 to 8.5) with aqueous NaOH (2N). The dosing solution was sonicated to produce a clear solution. The final volume was adjusted to about 3.0 ml.
(§1) The typical dosing and sampling protocols were as follows. […] The dosing solution was expressed slowly into the colon by pressing the syringe plunger.
Citrated blood samples were collected by cardiac puncture following the administration of ketamine (88 mg/kg), typically at 0.25, 0.5, 1.0 and 1.5 hours after dosing. Heparin absorption was verified by an increase in clotting time measured by the activated partial thromboplastin time (APTT) according to the method of Henry, J. B., Clinical Diagnosis and Management by Laboratory Methods, Philadelphia, Pa., W.B. Saunders (1979). Previous studies indicated baseline values of about 20 seconds.

[3] = Insulin oral delivery, serum human insulin by ELISA; conditions: rats
Method: Oral dosing (PO) compositions of delivery agent compound and human zinc insulin (minimum 26 IU/mg available from Calbiochem—Novabiochem Corp, La Jolla, Calif.) were prepared in deionized water. […] The pH was adjusted to about 7 to 8.5 with NaOH or HCl. […] The final delivery agent compound dose, insulin dose and dose volume amounts are listed below in Table 8.
(§2) The typical dosing and sampling protocols were as follows.
Serum insulin levels were determined with an Insulin ELISA Test Kit (Kit # DSL-10-1600 from Diagnostic Systems Laboratories, Inc., Webster, Tex.), modifying the standard protocol in order to optimize the sensitivity and linear range of the standard curve for the volumes and concentrations of the samples used in the present protocol. […] The five values for each time point were averaged and the results plotted as serum insulin concentration versus time.

[4] = Low molecular weight heparin (LMWH) oral/intracolonic delivery, plasma LMWH by anti-Factor Xa assay; format: in vivo, Sprague-Dawley rats; conditions: IC, rats, LMWH 750 IU/kg, 1 ml/kg
Method: Oral dosing (PO) and/or intracolonic (IC) compositions containing a delivery agent compound and low molecular weight heparin (LMWH) were prepared in 25% aqueous propylene glycol. […] Typically, the delivery agent compound and LMWH (Parnaparin, 91 IU/mg average molecular weight about 5,000, available from Opocrin, Modena, Italy) (typically 90-105 IU/mg, average molecular weight about 5,000) were mixed by vortex as dry powders. This dry mixture was dissolved in 25% v/v aqueous propylene glycol, vortexed, and placed in a sonicator (37° C.) to produce a clear solution. The pH was adjusted to about 7 (6.5-8.5) with 2N aqueous NaOH. The dosing solution was sonicated to produce a clear solution. The final volume was adjusted to 3.0 ml.
as §1
Citrated blood samples were collected by cardiac puncture following the administration of ketamine (88 mg/kg), typically at 0.5, 1.0, 2.0, 3.0 and 4.0 hours after dosing. LMWH absorption was verified by an increase in plasma LMWH measured by the anti-Factor Xa assay CHROMOSTRATE™ Heparin anti-Xa assay (available from Organon Teknika Corporation, Durham, N.C.). […] The peak of these mean plasma LMWH concentrations is reported below in Table 5.

[5] = Interferon oral delivery, serum IFN by immunoassay; format: in vivo, Sprague-Dawley rats; conditions: rats, delivery agent compound 200 mg/kg, IFN 1 mg/kg, 1 ml/kg
Method: Dosing solutions of delivery agent compound and human interferon (IFN) were prepared in deionized water. […] This mixture was vortexed and placed in a sonicator (about 37° C.). The pH was adjusted to about 7.0 to 8.5 with aqueous NaOH. The mixture was vortexed to produce a uniform suspension or solution, also using sonication and heat if necessary.
as §2
Serum IFN concentrations were quantified using Cytoscreen Immunoassay Kit for human IFN-alpha (catalog # KHC4012 from Biosource International, Camarillo, Calif.). Previous studies indicated baseline values of about zero.

[6] = Insulin pulmonary delivery, serum insulin by ELISA, ratio to insulin-alone control; format: in vivo, Sprague-Dawley rats; conditions: rats; for Cmax (serum insulin): Table 9 pulmonary delivery, volume 1 ml/kg, delivery agent compound 3 mg/kg, insulin 100 mg/kg (so in the source)
Method: Dosing compositions of delivery agent compound and human insulin in water were prepared. Typically, to 1.5 mg of delivery agent compound was added deionized water to bring the volume to 1.0 ml, and the solution was vortexed. […] The pH was adjusted to between about 7.0 to 8.5 with NaOH or HCl. […] The final delivery agent compound dose, insulin dose and volume dose amounts are listed below in Table 9.
The typical dosing and sampling protocols were as follows. […] A control group of five animals was dosed insulin alone. A tracheal instillator for rodents, equipped with light (available from Penn Century, Inc., Pittsburgh, Pa.) was filled with dosing solution and inserted down the throat until the needle went into the trachea (confirmed visually). The dosing solution was administered by pressing the plunger.
Blood samples from each animal were collected serially from the tail artery, typically at 5, 15, 30, 60 and 120 minutes after dosing. […] The ratio of the area under the curve (AUC) for the test group versus that of the control group is reported below. The ratio of the maximum serum insulin concentration (Cmax) for the test group versus that of the control group is also reported below.

[7] = Recombinant human growth hormone (rhGH) oral delivery, serum rhGH by immunoassay; conditions: oral gavage, rats; delivery agent compound 200 mg/kg, rhGH 3 mg/kg, volume dose 1 ml
Method: Oral gavage (PO) dosing solutions of delivery agent compound and rhGH in phosphate buffer were prepared by mixing. A solution of the delivery agent compound was made either with the sodium salt of the delivery agent compound or by converting the free acid to its sodium salt.
The typical dosing and sampling protocols were as follows. Male Sprague-Dawley rats weighing 200-250 g were fasted for 24 hours and administered ketamine (44 mg/kg) and chlorpromazine (1.5 mg/kg) 15 minutes prior to dosing and again as needed to maintain anesthesia. A dosing group of five animals was administered one of the dosing solutions. An 11 cm Rusch 8 French catheter was adapted to a 1 ml syringe with a pipette tip. The syringe was filled with dosing solution by drawing the solution through the catheter, which was then wiped dry. The catheter was placed down the esophagus leaving 1 cm of tubing past the incisors. The dosing solution was administered by pressing the syringe plunger.
Blood samples were collected serially from the tail artery typically at time=15, 30, 45, 60 and 90 minutes. The five samples from each time period were pooled (except for those samples for which standard deviation (SD) and standard error (SE) are reported). Serum rHGH concentrations were quantified by an rHGH immunoassay test kit (Kit # K1F4015 from Genzyme Corporation Inc., Cambridge, Mass.).

[8] = Daptomycin oral delivery, plasma daptomycin by HPLC; format: in vivo, Sprague-Dawley rats; conditions: rats, delivery agent compound dose 200 mg/kg, daptomycin dose 50 mg/kg, volume dose 1 mL/kg
Method: Dosing solutions containing a delivery agent compound and daptomycin (Cubist Pharmaceuticals, Cambridge, Mass.) were prepared in 0.9% normal saline. […] This mixture was vortexed and placed in a sonicator (about 37° C.). The pH was adjusted to about 7.0-7.5 with aqueous HCl or NaOH. […] The mixture was vortexed to produce a uniform solution, also using sonication if necessary. The delivery agent compound solution was mixed with daptomycin from a stock solution (200 mg daptomycin/mL in 0.9% normal saline and the pH adjusted, if necessary, to between 6.0-7.0 with NaOH or HCl). The stock solution was stored frozen (−20° C.) wrapped in foil, then thawed and warmed gradually to about 25° C. before using. The delivery agent-daptomycin mixture was vortexed at low speed to produce a uniform solution. The pH was adjusted to about 7.0-7.5 with aqueous NaOH. The solution was then diluted with 0.9% normal saline to the desired volume (usually 2.0 ml) and concentration and stored wrapped in foil before use.
as §2
Heparinized rat blood samples were collected via the ventral tail artery, typically at 0.25, 0.5, 0.75, 1.0, 2.0, and 4.0 hours after dosing, and stored on ice. Blood samples were then spun (centrifuged) at 11,500 rpm for 4 minutes at 4° C. to obtain the plasma (supernatant), which was stored at −70° C. The plasma daptomycin concentrations were measured by isocratic reversed phase HPLC, keeping samples at 4° C. during analysis. Blank plasma studies show baseline values of zero.
Daptomycin blood concentrations results from the individual animals in each dosage group were averaged for each time point.

[9] = IC (intracolonic), delivery agent compound 50 mg/kg, heparin 25 mg/kg, volume dose 1 ml
[10] = delivery agent compound 100 mg/kg, insulin 3 mg/kg, 1 ml/kg
[11] = delivery agent compound 25 mg/kg
[12] = delivery agent compound 200 mg/kg, insulin 0.5 mg/kg, 1 ml/kg
[13] = delivery agent compound 50 mg/kg

SMILES	Mean Peak APTT ± SD [2, 9]	Mean Peak Serum [INS] ± SD [3, 10]	Mean Peak Serum [IFN] ± SD [5]	Cmax (serum insulin) [6]	Mean Peak Serum [rhGH] [7]	further results
CC(=O)c1ccccc1OCc1ccc(C(=O)O)cc1 [Compound 1]	130.84 ± 118.18 s and 231.34 s	74.237 ± 1144.49 μU/ml	17.357 ± 38 ng/mL	74.237 μU/ml	–	Mean Peak Serum sCT (pg/ml ± SD) (SE) ([1]; 150 mg/kg): 317 ± 405 pg/mL and 398 ± 237 pg/mL and 410 ± 471 pg/mL; Mean Peak Plasma LMWH Concentration ± SD [4, 11]: 1.022 ± 0.432 IU/ml; Mean Peak Plasma LMWH Concentration ± SD ([4]; delivery agent compound 50 mg/kg, 50 mg/kg): 1.734 ± 0.192 IU/ml and 1.038 ± 0.338 IU/ml
O=C(O)CCCCCCOc1ccccc1O [Compound 6, (2-hydroxyphenyl)-7-oxyheptanoic acid]	157.4 ± 33.7 s and 99.8 ± 50.6 s	–	0.5696 ± 0.8 ng/mL	–	–	Mean Peak APTT ± SD ([2]; PO (oral gavage), delivery agent compound 300 mg/kg, heparin 100 mg/kg, volume dose 3 ml): 193 ± 61.2 s; Mean Peak Serum [INS] ± SD [3, 12]: 129.5 ± 131.5 μU/ml; Mean Peak Plasma LMWH Concentration ± SD [4, 11]: 0.47 ± 0.17 IU/ml
CC(=O)c1ccccc1OCCCCC(=O)O [Compound 10]	81.8 ± 7 s and 63.5 s	63.5884 ± 129.23 μU/ml	–	63.5884 μU/ml	34.3 ng/mL	Mean Peak Plasma LMWH Concentration ± SD [4, 13]: 0.088 ± 0.121 IU/ml
O=C(O)CCCOc1ccccc1 [Compound 14]	–	–	–	–	19.8 ng/mL	Mean plasma Cmax [daptomycin] ± SD [8]: 14200 ± 24840 ng/mL
O=C(O)C=Cc1ccccc1OCCCCCCCC(=O)O [Compound 25]	–	47.2162 ± 31.43 μU/ml	–	47.2162 μU/ml	0 ng/mL	Mean Peak Serum sCT (pg/ml ± SD) (SE) [1]: 53 ± 77 pg/mL
O=C(O)CCCCCCCOc1ccccc1C(=O)O [Compound 32]	26.5 ± 2.3 s	–	0 ng/mL	–	0 ng/mL	Mean Peak Serum sCT (pg/ml ± SD) (SE) ([1]; 150 mg/kg): 175 ± 148 pg/mL and 103 ± 75 pg/mL and 187 ± 135 pg/mL; Mean Peak Serum [INS] ± SD [3, 12]: 3.12 ± 2.26 μU/ml; Mean Peak Serum [INS] ± SD ([3]; delivery agent compound 200 mg/kg, insulin 3 mg/kg, 1 ml/kg): 6.38 ± 4.42 μU/ml; Mean Peak Plasma LMWH Concentration ± SD [4, 13]: 0.07 ± 0.01 IU/ml
O=C(O)CCCCCCCCCOc1cccc(O)c1 [Compound 44]	–	–	–	–	–	Mean Peak Serum sCT (pg/ml ± SD) (SE) [1]: 188 ± 184 pg/mL; Mean Peak Serum [INS] ± SD ([3]; delivery agent compound 100 mg/kg, insulin 3 mg/kg, 0.5 ml/kg): 97.49 ± 134.1 μU/ml; Mean Ratio of AUC for insulin + compound versus AUC for insulin alone ([6]; pulmonary, volume 0.4 ml/kg, delivery agent compound 0.03 mg/kg, insulin 0.3 mg/kg (so in the source)): 0.76
